Assay results as given in patent publication US12233161B1, “Lipids and lipid nanoparticle formulations” (LONGUIDE BIOPHARMA CORPORATION, priority 2024, dated 2025).

How the values were obtained:
[1] = Particle size and PDI of nucleic acid lipid nanoparticle preparations by dynamic light scattering; format: physicochemical
In short: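 Nanoparticle suspension (about 0.04 mg/mL mRNA) diluted in ultrapure water, mixed by gentle pipetting; particle size measured by dynamic light scattering. Zeta potential measured on the recovered sample after further dilution in ultrapure water.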

[2] = Potential characterization of nucleic acid lipid nanoparticle preparations; format: physicochemical
In short: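 Zeta potential was read on a Malvern ZEN3700 after diluting 20 μL lipid nanoparticle solution (about 0.04 mg/mL mRNA) into 780 μL ultrapure water. Alternatively, a 27.5 μL sample in 200 μL water was first sized by dynamic light scattering, then diluted with 600 μL more water for potential measurement.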

mice = test: In vivo delivery of FLuc-mRNA lipid nanoparticles in mice, in vivo imaging (IVIS)
In short: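 Mice (n=3) received about 75 μL FLuc-mRNA LNP per mouse intramuscularly (rectus femoris), intravenously (tail vein), intraperitoneally or subcutaneously (back). After injection, D-luciferin (200 μL, 15 mg/mL) was given i.p. 10-15 min before IVIS imaging.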

[3] = DMG-PEG2000:DSPC:Chol:Lipid 1.50:11.50:17.00:70.00, N/P 30, mRNA LNP
[4] = DMG-PEG2000:DSPC:Chol:Lipid 1.50:11.50:37.00:50.00, N/P 30, mRNA LNP
[5] = DMG-PEG2000:DSPC:Chol:Lipid 1.50:11.50:57.00:30.00, N/P 30, mRNA LNP
[6] = DMG-PEG2000:DSPC:Chol:Lipid 1.71:12.98:45.31:40.00, N/P 30, mRNA LNP
[7] = DMG-PEG2000:DSPC:Chol:Lipid 2.50:11.50:51.00:35.00, N/P 18, mRNA LNP
[8] = DMG-PEG2000:DSPC:Chol:compound 1.50:30.00:33.50:35.00, N/P 9
[9] = DMG-PEG2000:DSPC:Chol:compound 1.50:30.00:48.50:20.00, N/P 9
[10] = DMG-PEG2000:DSPC:Chol:compound 1.50:30.00:58.50:10.00, N/P 9
[11] = DMG-PEG2000:DSPC:Chol:compound 1.50:30.00:63.50:5.00, N/P 9
[12] = DMG-PEG2000:DSPC:Chol:Lipid 1.50:11.50:17.00:70.00, N/P 30, IV, liver
[13] = DMG-PEG2000:DSPC:Chol:Lipid 1.50:11.50:17.00:70.00, N/P 30, IV, lung
[14] = DMG-PEG2000:DSPC:Chol:Lipid 1.50:11.50:17.00:70.00, N/P 30, IV, spleen
[15] = DMG-PEG2000:DSPC:Chol:Lipid 1.50:11.50:37.00:50.00, N/P 30, IV, liver
[16] = DMG-PEG2000:DSPC:Chol:Lipid 1.50:11.50:37.00:50.00, N/P 30, IV, lung
[17] = DMG-PEG2000:DSPC:Chol:Lipid 1.50:11.50:37.00:50.00, N/P 30, IV, spleen
[18] = DMG-PEG2000:DSPC:Chol:Lipid 1.50:11.50:57.00:30.00, N/P 30, IV, liver
[19] = DMG-PEG2000:DSPC:Chol:Lipid 1.50:11.50:57.00:30.00, N/P 30, IV, lung
[20] = DMG-PEG2000:DSPC:Chol:Lipid 1.50:11.50:57.00:30.00, N/P 30, IV, spleen
[21] = DMG-PEG2000:DSPC:Chol:Lipid 2.50:11.50:51.00:35.00, N/P 18, IV, liver
[22] = DMG-PEG2000:DSPC:Chol:Lipid 2.50:11.50:51.00:35.00, N/P 18, IV, lung
[23] = DMG-PEG2000:DSPC:Chol:Lipid 2.50:11.50:51.00:35.00, N/P 18, IV, spleen

CCCCCCCCCCCCOC(=O)C(O)CN(CCCN(C)CCCN(CC(O)C(=O)OCCCCCCCCCCCC)CC(O)C(=O)OCCCCCCCCCCCC)CC(O)C(=O)OCCCCCCCCCCCC (centres unmarked) [Compound L0261]
PDI [1, 3]: 0.17 ± 0.01
Particle size [1, 3]: 118.13 ± 0.40 nm
PDI [1, 4]: 0.20 ± 0.01
Particle size [1, 4]: 130.87 ± 0.87 nm
PDI [1, 5]: 0.13 ± 0.02
Particle size [1, 5]: 88.09 ± 0.52 nm
PDI [1, 6]: 0.24 ± 0.02
Particle size [1, 6]: 94.33 ± 1.52 nm
PDI [1, 7]: 0.17 ± 0.01
Particle size [1, 7]: 99.13 ± 0.78 nm
PDI [1, 8]: 0.20
Particle size (nm) [1, 8]: 141.40 nm
PDI [1, 9]: 0.21
Particle size (nm) [1, 9]: 107.23 nm
PDI [1, 10]: 0.21
Particle size (nm) [1, 10]: 136.30 nm
PDI [1, 11]: 0.16
Particle size (nm) [1, 11]: 128.87 nm
Zeta potential (mV) [2, 8]: 16.03 mV
Zeta potential (mV) [2, 9]: 14.53 mV
Zeta potential (mV) [2, 10]: 15.47 mV
Zeta potential (mV) [2, 11]: 16.57 mV
IVIS (mice; DMG-PEG2000:DSPC:Chol:Lipid 1.50:11.50:17.00:70.00, N/P 30, IV, body): 4.64 × 10^7
% of organ targeting (mice; [12]): 1.68%
IVIS (mice; [12]): 1.65 × 10^6
% of organ targeting (mice; [13]): 91.29%
IVIS (mice; [13]): 8.93 × 10^7
% of organ targeting (mice; [14]): 7.03%
IVIS (mice; [14]): 6.88 × 10^6
IVIS (mice; DMG-PEG2000:DSPC:Chol:Lipid 1.50:11.50:37.00:50.00, N/P 30, IV, body): 1.09 × 10^8
% of organ targeting (mice; [15]): 30.20%
IVIS (mice; [15]): 1.83 × 10^7
% of organ targeting (mice; [16]): 30.87%
IVIS (mice; [16]): 1.87 × 10^7
% of organ targeting (mice; [17]): 38.93%
IVIS (mice; [17]): 2.36 × 10^7
IVIS (mice; DMG-PEG2000:DSPC:Chol:Lipid 1.50:11.50:57.00:30.00, N/P 30, IV, body): 5.88 × 10^7
% of organ targeting (mice; [18]): 17.84%
IVIS (mice; [18]): 1.20 × 10^7
% of organ targeting (mice; [19]): 7.50%
IVIS (mice; [19]): 5.06 × 10^6
% of organ targeting (mice; [20]): 74.66%
IVIS (mice; [20]): 5.03 × 10^7
IVIS (mice; DMG-PEG2000:DSPC:Chol:Lipid 1.71:12.98:45.31:40.00, N/P 30, IM, whole body scan): 5.24 × 10^6
IVIS (mice; DMG-PEG2000:DSPC:Chol:Lipid 2.50:11.50:51.00:35.00, N/P 18, IV, body): 4.72 × 10^7
% of organ targeting (mice; [21]): 6.56%
IVIS (mice; [21]): 3.81 × 10^6
% of organ targeting (mice; [22]): 1.88%
IVIS (mice; [22]): 1.09 × 10^6
% of organ targeting (mice; [23]): 91.57%
IVIS (mice; [23]): 5.33 × 10^7
IVIS (mice; IV, body, DMG-PEG2000:DSPC:Chol:compound 1.50:30.00:33.50:35.00, N/P 9, Fluc-mRNA): 2.66E+07
IVIS (mice; IV, body, DMG-PEG2000:DSPC:Chol:compound 1.50:30.00:48.50:20.00, N/P 9, Fluc-mRNA): 1.18E+07
IVIS (mice; IV, body, DMG-PEG2000:DSPC:Chol:compound 1.50:30.00:58.50:10.00, N/P 9, Fluc-mRNA): 2.03E+06
IVIS (mice; IV, body, DMG-PEG2000:DSPC:Chol:compound 1.50:30.00:63.50:5.00, N/P 9, Fluc-mRNA): 1.06E+06
% of organ targeting (mice; IV, liver, DMG-PEG2000:DSPC:Chol:compound 1.50:30.00:33.50:35.00, N/P 9): 3.86%
IVIS (mice; IV, liver, DMG-PEG2000:DSPC:Chol:compound 1.50:30.00:33.50:35.00, N/P 9, Fluc-mRNA): 1.00E+06
% of organ targeting (mice; IV, liver, DMG-PEG2000:DSPC:Chol:compound 1.50:30.00:48.50:20.00, N/P 9): 8.55%
IVIS (mice; IV, liver, DMG-PEG2000:DSPC:Chol:compound 1.50:30.00:48.50:20.00, N/P 9, Fluc-mRNA): 1.65E+06
% of organ targeting (mice; IV, liver, DMG-PEG2000:DSPC:Chol:compound 1.50:30.00:58.50:10.00, N/P 9): 36.36%
IVIS (mice; IV, liver, DMG-PEG2000:DSPC:Chol:compound 1.50:30.00:58.50:10.00, N/P 9, Fluc-mRNA): 7.14E+05
% of organ targeting (mice; IV, liver, DMG-PEG2000:DSPC:Chol:compound 1.50:30.00:63.50:5.00, N/P 9): 26.05%
IVIS (mice; IV, liver, DMG-PEG2000:DSPC:Chol:compound 1.50:30.00:63.50:5.00, N/P 9, Fluc-mRNA): 1.91E+05
% of organ targeting (mice; IV, lung, DMG-PEG2000:DSPC:Chol:compound 1.50:30.00:33.50:35.00, N/P 9): 2.02%
IVIS (mice; IV, lung, DMG-PEG2000:DSPC:Chol:compound 1.50:30.00:33.50:35.00, N/P 9, Fluc-mRNA): 5.23E+05
% of organ targeting (mice; IV, lung, DMG-PEG2000:DSPC:Chol:compound 1.50:30.00:48.50:20.00, N/P 9): 4.05%
IVIS (mice; IV, lung, DMG-PEG2000:DSPC:Chol:compound 1.50:30.00:48.50:20.00, N/P 9, Fluc-mRNA): 7.80E+05
% of organ targeting (mice; IV, lung, DMG-PEG2000:DSPC:Chol:compound 1.50:30.00:58.50:10.00, N/P 9): 4.39%
IVIS (mice; IV, lung, DMG-PEG2000:DSPC:Chol:compound 1.50:30.00:58.50:10.00, N/P 9, Fluc-mRNA): 8.62E+04
% of organ targeting (mice; IV, lung, DMG-PEG2000:DSPC:Chol:compound 1.50:30.00:63.50:5.00, N/P 9): 7.91%
IVIS (mice; IV, lung, DMG-PEG2000:DSPC:Chol:compound 1.50:30.00:63.50:5.00, N/P 9, Fluc-mRNA): 5.78E+04
% of organ targeting (mice; IV, spleen, DMG-PEG2000:DSPC:Chol:compound 1.50:30.00:33.50:35.00, N/P 9): 94.12%
IVIS (mice; IV, spleen, DMG-PEG2000:DSPC:Chol:compound 1.50:30.00:33.50:35.00, N/P 9, Fluc-mRNA): 2.44E+07
% of organ targeting (mice; IV, spleen, DMG-PEG2000:DSPC:Chol:compound 1.50:30.00:48.50:20.00, N/P 9): 87.40%
IVIS (mice; IV, spleen, DMG-PEG2000:DSPC:Chol:compound 1.50:30.00:48.50:20.00, N/P 9, Fluc-mRNA): 1.68E+07
% of organ targeting (mice; IV, spleen, DMG-PEG2000:DSPC:Chol:compound 1.50:30.00:58.50:10.00, N/P 9): 59.25%
IVIS (mice; IV, spleen, DMG-PEG2000:DSPC:Chol:compound 1.50:30.00:58.50:10.00, N/P 9, Fluc-mRNA): 1.16E+06
% of organ targeting (mice; IV, spleen, DMG-PEG2000:DSPC:Chol:compound 1.50:30.00:63.50:5.00, N/P 9): 66.04%
IVIS (mice; IV, spleen, DMG-PEG2000:DSPC:Chol:compound 1.50:30.00:63.50:5.00, N/P 9, Fluc-mRNA): 4.83E+05
tissue-targeting specificity (lung vs spleen depending on molar percentage of compound) (mice; certain formulations, Table 2): strong tissue-targeting specificity
